US20240082212A1, “USE OF MDMA FOR TREATMENT OF STRESS-RELATED DISORDERS” (priority 2022, published 2024)
“And” between values parts separate entries of the source, which are not always exact repeats. Equal values may be shown once. “Also recorded” adds a separate entry of the source.

Key:
C57BL/6J mice = experiment: Head twitch response (HTR); format: in vivo, mouse; conditions: 3 mg/kg IP, 30 minutes after injection; listed as R,S-MDMA
Method: Male C57BL/6J mice at 6-8 weeks of age were purchased from Jackson Laboratories and housed four per cage in a climate and humidity-controlled room in a vivarium at the University of California, San Diego. The room operated on a reverse light cycle (lights on at 1900 h, off at 0700 h) with food and water available ad libitum, except during testing. All testing was performed during 1000 h and 1800 h. After a minimum of 1 week acclimation to the housing facility, mice were anesthetized using a mixture of ketamine (100 mg/kg IP) and xylazine (10 mg/kg IP). Under deep anesthesia, an incision was made in the scalp and a small neodymium magnet (4.57 mm×4.57 mm×2.03 mm) was attached to the cranium using cyanoacrylate and dental cement. After at least a 2-week recovery period, the mouse was removed from the home cage and injected intraperitoneally with the test article or vehicle (0.9% sterile saline). Immediately, the mouse was placed in a glass cylinder surrounded by a magnetometer coil and the head twitch response (HTR) was assessed for 30 minutes (Halberstadt and Geyer, 2013). The output of the coil was recorded using a Powerlab/8SP with LabChart v.7.3.2 (ADInstruments). Coil voltage was amplified, low-pass filtered (2-10 kHz cut-off frequency) to remove interference, digitized and sampled at 20 kHz. Head twitches were identified using a validated technique based on artificial intelligence (Halberstadt, 2020). Events in the recordings were transformed into a visual representation in the time-frequency domain and deep features were extracted using the pretrained convolutional neural network ResNet-50, and the images were subsequently classified using a Support Vector Machine algorithm.
Test articles (R,S-MDA, R(−)-MDA, S-(+)MDA), R,S-MDMA, R(−)-MDMA and S(+)-MDMA) were supplied by the NIDA Drug Supply Program as neat powders. Racemic MDA and MDMA and their enantiomers were dissolved in saline and injected IP at a volume of 5 mL/kg. Each dose was calculated based on the salt form of the compounds. For each treatment condition, six groups of mice (n=5-6/group) were treated with vehicle or the test drug (0.1, 0.3, 1, 3, or 10 mg/kg) and HTR assessed for 30 minutes immediately following injections. To avoid carryover effects, each treatment condition was performed at least seven days apart. Total number of mice used for the experiment was 63.

CD (Sprague Dawley) rats = experiment: Rat telemetry: heart rate, blood pressure, body temperature, activity after cumulative SC dosing; format: in vivo; conditions: for Rank Order Blood Pressures (Systolic, Diastolic, and Mean Arterial) Effects / Rank Order Body Temperature Effects / Rank Order General Activity Effects / Rank Order Heart Rate Measurement Effects: telemetry, cumulative SC dosing, dose groups stated in the value
Text: Methods. A total of 42 adult male CD® (Sprague Dawley) rats (Charles River Laboratories) were surgically implanted with DSI radiotelemetry devices by personnel at Charles River Laboratories Raleigh, NC, per their test site SOPs. Telemetry devices supported continuous recording of temperature, activity, blood pressure and heart rate. Telemeterized rats were shipped to the Charles River Laboratories testing facility (Mattawan, MI) and acclimated to the environment for at least 1 week prior to experimentation. Animals were pair-housed in solid bottom cages with nonaromatic bedding. On the dosing day, animals were singly housed and then returned to the paired cohort following the dosing/telemetry recording phase. Diet (Lab Diet® Certified Rodent Diet #5CR4) and tap water via an automatic water system were available ad libitum, except during designated procedures. Temperature and humidity were maintained according to the Testing Facility SOP. Animals were randomized into treatment groups using a standard, by weight, measured value randomization procedure. Body weight was determined for each rat prior to dosing.
As illustrated in the Table, a total of 36 rats were included in the study. The vehicle and 2 test article doses were administered in a volume of 1 mL/kg to each of 3 groups of n=12 telemeterized rats via subcutaneous injection four times on a given day, followed by neurobehavioral evaluations. This series was repeated 3 times on study. Each group received all 3 dose levels of the applicable test or control article in ascending order with a 1-week washout between dose levels.
Mortality/cage side clinical observations were conducted for all study animals at least twice daily beginning upon receipt through termination, except on days of receipt and termination where frequency was at least once daily. Detailed clinical observations were conducted for all study animals prior to each of the four cumulative doses in a series. Individual body weights were conducted for all study animals at transfer, prior to randomization, on the day of dosing on each of the 3 cycles of dosing. The body weights recorded at transfer and prior to randomization are not reported but are maintained in the study file. Veterinary care was available throughout the course of the study, and animals were examined by the veterinary staff as needed based on clinical signs or other changes. All animals were provided with HydroGel the night prior to their respective dosing days to potentially mitigate any animal welfare issues related to fluid loss/dehydration.
Telemetry monitoring was conducted for all animals 2 hours prior to dosing and through to 7.5 hours following the last (4th) cumulative dose of each series, which included continuous data collection of body temperature, activity, heart rate, and blood pressure (systolic, diastolic, and mean arterial) using telemetry.
The total period of time over which the statistical analyses were conducted encompassed the entire dosing period for all animals (i.e., Dose 1 through 7.5 hour post-4th dose) in an effort to draw conclusions regarding the effects of the dosing procedure and cumulative changes by allowing comparisons between the cumulative dosing periods. The following statistical analyses were performed for each analysis segment.
All time-series data comparisons conducted via statistical analysis are relative to the control treatment and are based on the LSMean values. Additionally, the change values used for the statistical analysis were calculated using a baseline of the 2 hours of pre-dose data, prior to the first compound injection of the series. The raw change values were analyzed.

[1] = Rat brain monoamine and metabolite concentrations 1 week after cumulative SC dosing; conditions: for 5-HIAA mean brain concentration / 5-HT mean brain concentration: frontal cortex; for 5-HIAA mean brain concentration / 5-HT mean brain concentration / DA mean brain concentration / DOPAC mean brain concentration / HVA mean brain concentration: male rat; for DA mean brain concentration / DOPAC mean brain concentration / HVA mean brain concentration: striatum
[2] = maximum change, R-MDMA and racemic MDMA 10, 20 mg/kg/day, S-MDMA 5, 10 mg/kg/day, 4 hourly SC injections
[3] = racemic MDMA 20 mg/kg/day, S-MDMA 10 mg/kg/day, approximate
[4] = 1 week after 4 hourly SC injections of 2.5 mg/kg
[5] = 1 week after 4 hourly SC injections of 5 mg/kg
[6] = 1 week after 4 hourly SC injections of 5 mg/kg, 5 mg/kg
[7] = 1 week after 4 hourly SC injections of 10 mg/kg, N=2
[8] = 1 week after 4 hourly SC injections of 10 mg/kg, N=2, 10 mg/kg

In the case of `CNC(C)Cc1ccc2c(c1)OCO2` (racemic) [Racemic MDMA, 3,4-methylenedioxymethamphetamine], the “head twitch response (HTR) compared to control (vehicle)” value (C57BL/6J mice) is reported as “decrease in HTR”, the “hemodynamic parameters (systolic/diastolic/mean arterial blood pressures and heart rate)” value (CD (Sprague Dawley) rats; 4 hourly SC injections, cumulative doses 5, 10, or 20 mg/kg/day) is reported as “dose-dependent blood pressure-increasing effects” and the body temperature response (CD (Sprague Dawley) rats; S-MDMA 5, 10 mg/kg/day, racemic-MDMA 10, 20 mg/kg/day, 4 hourly SC injections) is reported as “hyperthermic response”. For the same molecule, the “activity (implanted telemetry devices)” value (CD (Sprague Dawley) rats; all cumulative doses (5, 10, or 20 mg/kg/day)) was “Activity-increasing effects”, the “blood pressure increase [mean arterial pressure]” value (CD (Sprague Dawley) rats; [2]) was “up to +46%” and the heart rate increase (CD (Sprague Dawley) rats; [2]) was “up to +37%”. For the same molecule, the peak body temperatures (CD (Sprague Dawley) rats; overall mean magnitude of change, 4 hourly SC injections) was 40.0 °C, the “period of significantly increased body temperature compared to R-MDMA (10 mg/kg/day)” value (CD (Sprague Dawley) rats; [3]) was 1-4 hours post initiation of dosing and the “period of significantly increased heart rate compared to R-MDMA (10 mg/kg/day)” value (CD (Sprague Dawley) rats; [3]) was 3-10 hours post initiation of dosing. For the same molecule, the “period of significantly increased mean arterial blood pressure compared to R-MDMA (10 mg/kg/day)” value (CD (Sprague Dawley) rats; [3]) was 1-3 hours post initiation of dosing, the “period of significantly increased systolic blood pressure compared to R-MDMA (10 mg/kg/day)” value (CD (Sprague Dawley) rats; [3]) was 1-3 hours post initiation of dosing and the “Rank Order Blood Pressures (Systolic, Diastolic, and Mean Arterial) Effects” value (CD (Sprague Dawley) rats; listed as Rac-MDMA) was “R-MDMA (20 mg/kg/day) < S-MDMA (10 mg/kg/day) < Rac-MDMA (20 mg/kg/day); also recorded: Rac-MDMA (0 mg/kg/day) < Rac-MDMA (10 mg/kg/day) < Rac-MDMA (20 mg/kg/day); also recorded: R-MDMA (10 mg/kg/day) < S-MDMA (10 mg/kg/day) < Rac-MDMA (20 mg/kg/day)”. For the same molecule, the “Rank Order Body Temperature Effects” value (CD (Sprague Dawley) rats; listed as Rac-MDMA) was “R-MDMA (20 mg/kg/day) < S-MDMA (10 mg/kg/day) < Rac-MDMA (20 mg/kg/day); also recorded: Rac-MDMA (0 mg/kg/day) < Rac-MDMA (10 mg/kg/day) < Rac-MDMA (20 mg/kg/day); also recorded: R-MDMA (10 mg/kg/day) < S-MDMA (10 mg/kg/day) < Rac-MDMA (20 mg/kg/day)”, the “Rank Order General Activity Effects” value (CD (Sprague Dawley) rats; listed as Rac-MDMA) was “R-MDMA (20 mg/kg/day) < S-MDMA (10 mg/kg/day) < Rac-MDMA (20 mg/kg/day); also recorded: Rac-MDMA (0 mg/kg/day) < Rac-MDMA (10 mg/kg/day) < Rac-MDMA (20 mg/kg/day); also recorded: R-MDMA (10 mg/kg/day) < S-MDMA (10 mg/kg/day) < Rac-MDMA (20 mg/kg/day)” and the “Rank Order Heart Rate Measurement Effects” value (CD (Sprague Dawley) rats; listed as Rac-MDMA) was “R-MDMA (20 mg/kg/day) < S-MDMA (10 mg/kg/day) < Rac-MDMA (20 mg/kg/day); also recorded: Rac-MDMA (0 mg/kg/day) < Rac-MDMA (10 mg/kg/day) < Rac-MDMA (20 mg/kg/day); also recorded: R-MDMA (10 mg/kg/day) < S-MDMA (10 mg/kg/day) < Rac-MDMA (20 mg/kg/day)”. For the same molecule, the “Rank Order Blood Pressures (Systolic, Diastolic, and Mean Arterial) Effects” value (CD (Sprague Dawley) rats; listed as Rac.-MDMA) was “R-MDMA (10 mg/kg/day) < S-MDMA (5 mg/kg/day) < Rac.-MDMA (10 mg/kg/day)”, the “Rank Order Body Temperature Effects” value (CD (Sprague Dawley) rats; listed as Rac.-MDMA) was “R-MDMA (10 mg/kg/day) < S-MDMA (5 mg/kg/day) < Rac.-MDMA (10 mg/kg/day)” and the “Rank Order General Activity Effects” value (CD (Sprague Dawley) rats; listed as Rac.-MDMA) was “R-MDMA (10 mg/kg/day) < S-MDMA (5 mg/kg/day) < Rac.-MDMA (10 mg/kg/day)”. For the same molecule, the “Rank Order Heart Rate Measurement Effects” value (CD (Sprague Dawley) rats; listed as Rac.-MDMA) was “R-MDMA (10 mg/kg/day) < S-MDMA (5 mg/kg/day) < Rac.-MDMA (10 mg/kg/day)”, the “frontal cortex 5-HT (serotonin) compared to vehicle” value ([1]; cumulative SC, 5 mg/kg/injection, 1 week after dosing) was “significantly reduced frontal cortex 5-HT concentrations” and the “5-HIAA mean brain concentration” value [1, 4] was 368.17 ng/g. The “5-HT mean brain concentration” value [1, 4] was 183.90 ng/g, the “5-HIAA mean brain concentration” value [1, 5] was 234.63 ng/g and the “5-HT mean brain concentration” value [1, 6] was 88.38 ng/g and 88.38 b** n* p* ng/g. For the same molecule, the “5-HIAA mean brain concentration” value [1, 7] was 235.00 ng/g, the “5-HT mean brain concentration” value [1, 7] was 100.85 ng/g and the “DA mean brain concentration” value [1, 4] was 5956.67 ng/g. For the same molecule, the “DOPAC mean brain concentration” value [1, 4] was 1811.00 ng/g, the “HVA mean brain concentration” value [1, 4] was 706.83 ng/g and the “DA mean brain concentration” value [1, 5] was 5190.63 ng/g. The “HVA mean brain concentration” value [1, 5] was 577.00 ng/g, the “DOPAC mean brain concentration” value [1, 6] was 1962.75 ng/g and 1962.75 h** ng/g and the “DA mean brain concentration” value [1, 7] was 7405.00 ng/g. For the same molecule, the “DOPAC mean brain concentration” value [1, 8] was 2015.00 ng/g and 2015.00 h* ng/g and the “HVA mean brain concentration” value [1, 8] was 923.50 ng/g and 923.50 d**h* ng/g.
